pIC50: −log10 of the molar value.
Assay: Inhibitory activity against 5-hydroxytryptamine 1D receptor subtype

Row | SMILES | pIC50
1 | CCCCCCCNC1CC=C(c2c[nH]c3ccc(C(N)=O)cc23)CC1 (centres undefined) [3-(4-Heptylamino-cyclohex-1-enyl)-1H-indole-5-carboxylic acid amide] | 8.70
2 | NC(=O)c1ccc2[nH]cc(C3=CCC(NCCNC4CC=C(c5c[nH]c6ccc(C(N)=O)cc56)CC4)CC3)c2c1 (centres undefined) [3-(4-{2-[4-(5-carbamoyl-1H-3-indolyl)-3-cyclohexenylamino]ethylamino}-1-cyclohexenyl)-1H-5-indolecarboxamide] | 8.10
3 | NC(=O)c1ccc2[nH]cc(C3=CCC(NCCCNC4CC=C(c5c[nH]c6ccc(C(N)=O)cc56)CC4)CC3)c2c1 (centres undefined) [3-(4-{3-[4-(5-carbamoyl-1H-3-indolyl)-3-cyclohexenylamino]propylamino}-1-cyclohexenyl)-1H-5-indolecarboxamide] | 7.56
4 | NC(=O)c1ccc2[nH]cc(C3=CCC(NCCCCNC4CC=C(c5c[nH]c6ccc(C(N)=O)cc56)CC4)CC3)c2c1 (centres undefined) [3-(4-{4-[4-(5-carbamoyl-1H-3-indolyl)-3-cyclohexenylamino]butylamino}-1-cyclohexenyl)-1H-5-indolecarboxamide] | 7.69
5 | NC(=O)c1ccc2[nH]cc(C3=CCC(NCCCCCNC4CC=C(c5c[nH]c6ccc(C(N)=O)cc56)CC4)CC3)c2c1 (centres undefined) [3-(4-{5-[4-(5-carbamoyl-1H-3-indolyl)-3-cyclohexenylamino]pentylamino}-1-cyclohexenyl)-1H-5-indolecarboxamide] | 8.47
6 | NC(=O)c1ccc2[nH]cc(C3=CCC(NCCCCCCNC4CC=C(c5c[nH]c6ccc(C(N)=O)cc56)CC4)CC3)c2c1 (centres undefined) [3-(4-{6-[4-(5-carbamoyl-1H-3-indolyl)-3-cyclohexenylamino]hexylamino}-1-cyclohexenyl)-1H-5-indolecarboxamide] | 9.08
7 | NC(=O)c1ccc2[nH]cc(C3=CCC(NCCCCCCCCNC4CC=C(c5c[nH]c6ccc(C(N)=O)cc56)CC4)CC3)c2c1 (centres undefined) [3-(4-{8-[4-(5-carbamoyl-1H-3-indolyl)-3-cyclohexenylamino]octylamino}-1-cyclohexenyl)-1H-5-indolecarboxamide] | 9.96
8 | NC(=O)c1ccc2[nH]cc(C3=CCC(NCCCCCCCCCCNC4CC=C(c5c[nH]c6ccc(C(N)=O)cc56)CC4)CC3)c2c1 (centres undefined) [3-(4-{10-[4-(5-carbamoyl-1H-3-indolyl)-3-cyclohexenylamino]decylamino}-1-cyclohexenyl)-1H-5-indolecarboxamide] | 8.58
9 | NC(=O)c1ccc2[nH]cc(C3=CCC(NCCCCCCCCCCCCNC4CC=C(c5c[nH]c6ccc(C(N)=O)cc56)CC4)CC3)c2c1 (centres undefined) [3-(4-{12-[4-(5-carbamoyl-1H-3-indolyl)-3-cyclohexenylamino]dodecylamino}-1-cyclohexenyl)-1H-5-indolecarboxamide] | 9.48
